According to patent US10064858B2, “Methods and compositions for treating bacterial infections with iron chelators” (THE UNITED STATES OF AMERICA, AS REPRESENTED BY THE …, priority 2011, dated 2018):
Converted amounts (≈) assume the structure as drawn. Like-named read-outs stand apart in the source and are kept apart here.

Legend:
Format in all cases: cell-based
Acinetobacter baumannii [1] = assay: MIC, CLSI microdilution (Tables 1 and 6)
Description: (§1) The minimal inhibitory concentration (MIC) of non-toxic iron chelators was determined against standard strains of MDR bacteria and clinical isolates according to the guidelines of the Clinical and Laboratory Standards Institute (CLSI).
(§2) Individual MICs were determined following the microdilution method recommended by CLSI in cationic-adjusted Mueller-Hinton Broth (CAMHB), or M9 media. […] Tests were performed in triplicate. MIC of iron chelators were determined for noscomial ESKAPE pathogens.
(§3) MIC were determined in CAMHB media as described above in Example 8.

E. coli [2] = assay: MIC, CLSI microdilution (Tables 1 and 6)
Description: as §1, §2, §3

K. pneumonia [3] = assay: MIC, CLSI microdilution (Tables 1 and 6); settings: Klebsiella pneumoniae
Description: as §1, §2, §3

P. aeruginosa [4] = assay: MIC, CLSI microdilution (Tables 1 and 6); settings: Pseudomonas aeruginosa
Description: as §1, §2, §3

S. aureus = assay: MIC, CLSI microdilution (Tables 1 and 6); settings: Staphylococcus aureus
Description: as §1, §2, §3

[5] = tested on: A. baumannii strain AB19606; assay: Growth (OD600) with chelator, Rifampin or both; settings: CAMHB
Description: A. baumannii strain AB19606 was grown in CAMHB and challenged with 1.5×MIC compound 4 (Var) or 1.5×MIC Triapine (Tri) with or without 0.75×MIC Rifampin (Rif). Growth was estimated by absorbance at 600 nm (y-axis) at 0 or 24 hours.

E. coli strain EC35218 = assay: Growth (OD600) with chelator, Rifampin or both; settings: CAMHB
Description: E. coli strain EC35218 was grown in CAMHB and challenged with 1.5×MIC compound 4 (Var) or 1.5×MIC Triapine (Tri) with or without 0.75×MIC Rifampin (Rif). Growth was estimated by absorbance at 600 nm (y-axis) at 0 or 24 hours.

E. coli EC35218 = assay: Time-kill assay in CAMHB; settings: ¾MIC Rifampicin alone; CAMHB
Description: Reductions in colony forming units (CFU)/mL were determined over time (time-kill assay) after exposure to VK28 and deferiprone (DFP), the two iron chelators that performed best in MIC assays when compared to controls. To better represent the iron content found in the human body, MIC and time-kill assays were also determined in minimal media and tissue culture media. Time-Kill assays were performed as previously described in G. P. Neupane et al., “In vitro time-kill activities of ciprofloxacin alone and in combination with the iron chelator deferasirox against Vibrio vulnificus,” European Journal of Clinical Microbiology and Infectious Diseases, 407-410 (2010); and R. L. White, et al., “Comparison of Three Different In Vitro Methods of Detecting synergy: Time-Kill, Checkerboard, and E test,” Journal of Antimicrobial Agents and Chemotherapy, 1914-1918 (1996). Initial inocula, for example 1×10^6 CFU/mL or 1×10^7 CFU/mL were challenged with iron chelator with and/or without an antibiotic. Cells were allowed to grow in CAMHB at 37° C. for 24 hours. Time-kill results were analyzed by determining the change in log 10 numbers of CFU/ml at 0, 6, and 24 h, compared to counts at 0 h. Antimicrobials were considered bactericidal at the lowest concentration that reduced the size of the original inoculum by >3 log 10 CFU/ml (99.9%) over each of the time periods and were considered bacteriostatic if the inoculum's size was reduced by 0 to <3 log 10 CFU/ml.
In this example, time-kill assays were performed as described in Example 9 against different multi-drug resistant bacteria, namely E. coli and MRSA.
In this example, time-kill assays were performed as described in Example 9 using ApoL1 as the iron chelator against two different E. coli strains. […] Time-kill results were analyzed by determining the change in log 10 numbers of CFU/mL at 6 and 24 hours.
In this example, time-kill assays were performed as described in Example 9 using Apo6619 as the iron chelator in combination with Rifampin against E. coli 35718. […] Time-kill results were analyzed by determining the change in log 10 numbers of CFU/mL at 0, 5 and 24 hours.

[6] = tested on: AB5075, a stain of A. baumannii (Ab); assay: Development of rifampin resistance over 7 days (OD600); settings: rifampin alone
Description: Development of antibiotic-resistant strains is an ongoing problem in the treatment of bacterial infections. In some embodiments, the present technology provides methods and compositions for reducing, inhibiting or preventing formation of antibiotic-resistant bacterial strains. In some embodiments, the iron chelator of the present technology is administered to a patient as a prophylactic before antibiotic treatment or during antibiotic treatment. In some embodiments, the iron chelator is added concurrently with an antibiotic.
Cultures of AB5075, a stain of A. baumannii (Ab), was cultured in the presence of Rifampin alone, the iron chelator ApoL1 alone or Rifampin combination with ApoL1 for 7 days.

Acinetobacter baumannii [7] = assay: MIC in RPMI1640 media (Table 2)
Description: (§4) […] […] Tests were performed in triplicate. MIC of iron chelators were determined for noscomial ESKAPE pathogens.
(§5) This media is closer to the iron levels in the human body. MICs are in ug/mL.

E. coli [8] = assay: MIC in RPMI1640 media (Table 2)
Description: as §4, §5

K. pneumonia [9] = assay: MIC in RPMI1640 media (Table 2); settings: Klebsiella pneumoniae
Description: as §4, §5

P. aeruginosa [10] = assay: MIC in RPMI1640 media (Table 2); settings: Pseudomonas aeruginosa
Description: as §4, §5

[11] = tested on: Acinetobacter baumannii strain 5711 (AB5711); assay: Growth (OD600) of AB5711 in low iron media with chelators, with or without FeCl3; settings: AB5711; low iron media; 100 μM or 200 μM chelator added after 4 hr; 24 hr
Description: Acinetobacter baumannii strain 5711 (AB5711) was grown overnight in LB media and sub-cultured into low iron media. The tested iron chelators were deferoxamine (DFO), deferiprone (DFP), 2,2-dipyridyl, and VK28. The iron chelators were added after 4 hr of growth.
Bacterial growth was estimated by absorption at OD600 every 4 hr for 24 hr. Optical density (OD) at 600 nm (OD600) as measured by a spectrophotometer is a widely used technique known by one skilled in the art to estimate the total number of bacterial cells present in a broth culture (CFU/ml). The exact amount of OD produced by a culture will depend on the concentration of cells present, the species and strain of microbe present, the growth conditions used, and the wavelength of the light being transmitted. Thus, the relationship between OD and cell concentrations will depend on the specific strain and growth conditions studied. For example, the OD600 of 1 for E. coli is about 1×10^9 CFU/ml.
This example provides further evidence that the removal of iron is responsible for bacterial growth inhibition. A. baumannii isolate 5711 was grown in low iron M9 media supplemented with 0 μM, 10 μM, or 100 μM FeCl3 with and without the addition of 200 μM VK28 following 4 hr of growth. Growth was estimated by absorbance at 600 nm every 4 hr for 24 hr.
This example provides further evidence that the removal of iron is responsible for bacterial growth inhibition. A. baumannii isolate 5711 was grown in low iron M9 media supplemented with 0 μM, 10 μM, 100 μM, or 1000 μM FeCl3 with and without the addition of 50 μg/ml of VK28 following 4 hr of growth. Growth was estimated by absorbance at 600 nm after 20 hours.

[12] = 1.5×MIC chelator in combination with 0.75×MIC Rifampin
[13] = alone: 1.5×MIC chelator or 0.75×MIC Rifampin
[14] = ATCC17978, ATCC 17978, Table 1, read-out: MIC of Iron Chelators
[15] = ATCC19606, ATCC 19606, Table 1, read-out: MIC of Iron Chelators
[16] = Escherichia coli, ATCC35218, ATCC 35218, Table 1, read-out: MIC of Iron Chelators
[17] = Escherichia coli, ATCC43888, ATCC 43888 (0157:H7), Table 1, read-out: MIC of Iron Chelators
[18] = ATCC700603, ATCC 700603, Table 1, read-out: MIC of Iron Chelators
[19] = BAA2146, BAA-2146, Table 1, read-out: MIC of Iron Chelators
[20] = ATCC27853, ATCC 27853, Table 1, read-out: MIC of Iron Chelators
[21] = PAO1, Table 1, read-out: MIC of Iron Chelators
[22] = ATCC25923, ATCC 25923, Table 1, read-out: MIC of Iron Chelators
[23] = ATCC 43300 (MRSA), Table 1, read-out: MIC of Iron Chelators
[24] = ATCC17978, ATCC 17978, read-out: MIC of Iron Chelators
[25] = ATCC19606, ATCC 19606, read-out: MIC of Iron Chelators
[26] = Escherichia coli, 35718, read-out: MIC of Iron Chelators
[27] = Escherichia coli, ATCC43888, ATCC 43888 (0157:H7), read-out: MIC of Iron Chelators
[28] = ATCC700603, ATCC 700603, read-out: MIC of Iron Chelators
[29] = BAA2146, BAA-2146, read-out: MIC of Iron Chelators
[30] = ATCC27853, ATCC 27853, read-out: MIC of Iron Chelators
[31] = PAO1, read-out: MIC of Iron Chelators

Structure (SMILES)	reduction of bacteria (absorbance at 600 nm, 24 hours) [5, 13]	reduction of bacteria (absorbance at 600 nm, 24 hours) (E. coli strain EC35218; [13])	MIC (Acinetobacter baumannii [1]; [14]) [µg/mL]	MIC (Acinetobacter baumannii [1]; [15]) [µg/mL]	MIC (E. coli [2]; [16]) [µg/mL]	MIC (E. coli [2]; [17]) [µg/mL]	MIC (K. pneumonia [3]; [18]) [µg/mL]	MIC (K. pneumonia [3]; [19]) [µg/mL]	MIC (P. aeruginosa [4]; [20]) [µg/mL]	MIC (P. aeruginosa [4]; [21]) [µg/mL]	MIC (S. aureus; [22]) [µg/mL]	MIC (S. aureus; [23]) [µg/mL]	MIC (Acinetobacter baumannii [7]; [24]) [µg/mL]	MIC (Acinetobacter baumannii [7]; [25]) [µg/mL]	MIC (E. coli [8]; [26]) [µg/mL]	MIC (E. coli [8]; [27]) [µg/mL]	MIC (K. pneumonia [9]; [28]) [µg/mL]	MIC (K. pneumonia [9]; [29]) [µg/mL]	MIC (P. aeruginosa [10]; [30]) [µg/mL]	MIC (P. aeruginosa [10]; [31]) [µg/mL]	further results
NC(=S)N/N=C/c1ncccc1N [Triapine, 3-aminopyridine-2-carboxaldehyde thiosemicarbazone]	no reduction of bacteria	did not result in a reduction of bacteria																			MIC (Acinetobacter baumannii [1]; AB19606, CAMHB, read-out: MIC): 32 µg/mL (≈ 164 µM); MIC (E. coli [2]; EC43888, CAMHB): 125 µg/mL (≈ 640 µM); MIC (E. coli [2]; Escherichia coli, EC35218, CAMHB, read-out: MIC): 125 µg/mL (≈ 640 µM); MIC (K. pneumonia [3]; KP700603, CAMHB, read-out: MIC): 250 µg/mL (≈ 1280 µM); MIC (P. aeruginosa [4]; PA27853, CAMHB, read-out: MIC): 250 µg/mL (≈ 1280 µM); MIC (S. aureus; SA43300, CAMHB, read-out: MIC): 125 µg/mL (≈ 640 µM); reduction of bacteria (absorbance at 600 nm, 24 hours) [5, 12]: significant reduction in bacteria; reduction of bacteria (absorbance at 600 nm, 24 hours) (E. coli strain EC35218; [12]): significant reduction in bacteria
CO[C@H]1/C=C/O[C@@]2(C)Oc3c(C)c(O)c4c(O)c(c(/C=N/N5CCN(C)CC5)c(O)c4c3C2=O)NC(=O)/C(C)=C\C=C\[C@H](C)[C@H](O)[C@@H](C)[C@@H](O)[C@@H](C)[C@H](OC(C)=O)[C@@H]1C [Rifampin]	no reduction of bacteria	did not result in a reduction of bacteria																			CFU/mL at 24 hours (E. coli EC35218): about 1×10^7 CFU/mL; time until antibiotic-resistant strains develop [6]: less than one day
c1ccc(-c2ccccn2)nc1 [DIP, 2,2-dipyridyl]			64	64	64	64	500	250	250	250	500	250	32	32	64	64	250	125	250	250	bacterial growth (OD600 growth curves) [11]: reduced bacterial growth to a significant extent
CC(=O)N(O)CCCCCNC(=O)CCC(=O)N(O)CCCCCNC(=O)CCC(=O)N(O)CCCCCN [DFO, deferoxamine]			> 500	> 500	> 500	> 500	> 500	> 500	> 500	> 500	> 500	> 500	> 500	> 500	> 500	> 500	> 500	> 500	> 500	> 500	bacterial growth (OD600 growth curves) [11]: little effect
